Source: patent US9034850B2, “Gonadotropin releasing hormone receptor antagonist, preparation method thereof and pharmaceutical composition comprising the same” (SK Chemicals Co., Ltd., priority 2009, dated 2015)
pIC50: −log10 of the molar value.

Target: T1, GnRH receptor (Homo sapiens, UniProt P30968)
T1 sequence (P30968 1-328): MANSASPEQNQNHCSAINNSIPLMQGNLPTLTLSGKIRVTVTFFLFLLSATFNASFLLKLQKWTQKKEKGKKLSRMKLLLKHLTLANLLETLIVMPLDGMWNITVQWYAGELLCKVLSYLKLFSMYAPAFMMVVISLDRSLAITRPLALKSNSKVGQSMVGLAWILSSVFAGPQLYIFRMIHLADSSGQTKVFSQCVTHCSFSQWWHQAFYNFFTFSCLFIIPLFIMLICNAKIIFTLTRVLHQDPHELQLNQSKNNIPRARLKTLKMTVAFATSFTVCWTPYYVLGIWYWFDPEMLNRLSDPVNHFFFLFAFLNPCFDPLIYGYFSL
Assay: GnRH-R reporter assay (NFAT promoter luciferase, leuprolide acetate as ligand)
Type: cell-based
Conditions: not given
Experimental: A double-transformed cell line (HEK293 transformed with pcDNA3.1/GnRH receptor and pGL4/NFAT promoter) was employed. To conduct a GnRH-R reporter assay, the double-transformed cell line was diluted at a density of 3×10^4 cells/well in a medium (DMEM, 10% FBS, 1% Penicillin-Streptomycin), plated into polylysine-coated white-clear bottom 96-well plates and incubated for 24 hrs. After the medium was changed with a serum-free medium (DMEM, 1% Penicillin-Streptomycin), the cells were incubated for an additional 12 hrs before reaction. The cells were incubated for 1 hr with a GnRH antagonist to be tested and then for an additional 6 hrs with a ligand (leuprolide acetate, Sigma), followed by reaction with a Luciferase assay system (Promega, Cat. No. E1500).
Each sample was analyzed at a 6-dose level to obtain the binding inhibitory rates (%) of the competitors on the basis of the measured luminescence. IC50 values were calculated using a nonlinear least square regression method with Prism (GraphPad, Inc.).

pIC50	Structure (SMILES)
8.00	Cc1c(N2CCN(Cc3cccc(C(F)(F)F)c3)CC2)c(=O)n(C[C@H](NCCCC(=O)O)c2ccccc2)c(=O)n1Cc1c(F)cccc1C(F)(F)F [Compound 11-2]

Same assay, conditions: HEK293 transformed with pcDNA3.1/GnRH receptor and pGL4/NFAT promoter; luciferase; read-out: IC50 Value

pIC50	Structure (SMILES)
8.31	Cc1cc(F)cc([C@H](Cn2c(=O)c(N3CCN(Cc4ccc(C(F)(F)F)o4)CC3)c(C)n(Cc3c(F)cccc3C(F)(F)F)c2=O)NCCCC(=O)O)c1 [Compound 11-4]

System: not listed separately
Assay: Assay for oral absorptivity (plasma drug level after oral administration)
Type: in vivo
Conditions: male, rat, 40 umol/kg; SD rats, oral, plasma
Experimental: 1) Preparation of Specimen for Measuring Drug Level upon Oral Administration
For use as experimental animals, SD rats (Charles River Japan, male, 8 weeks old, 220-270 g) was starved overnight. Test compounds (25˜30 mg) were dissolved in polyethyleneglycol 400 (PEG400) 20%, and a 0.5% carboxy methyl cellulose (CMC) solution 80% to produce solutions of 4 μmmol/mL. The rats were weighed. The test compounds were orally administered at a dose of 40 μmol/kg (ca. 25˜30 mg/kg) to the rats using a sonde and a 3 mL syringe. Blood samples were taken 20, 40, 60, 120, 240, and 360 min after the oral administration. Plasmas separated from the blood samples by centrifugation were used as specimens.
2) Measurement of Drug Level
0.09 mL of methanol was added to 0.03 mL of the plasma obtained in 1), followed by vortexing to precipitate and remove proteins. 0.005 mL of the supernatant was injected to LC/MS/MS.
Apparatus: Shiseido Nanospace SI-2
Column: Shiseido capcelpack C18, MG3, 5 um, 2.0 mm I.D×50 mm
Mobile Phase: a mixture of 3:7 10 mM ammonium formate (pH 4.0): acetonitrile.

Cmax [ng/mL]	Structure (SMILES)
4140	Cc1cc(F)cc([C@H](Cn2c(=O)c(N3CCN(Cc4ccc(C(F)(F)F)o4)CC3)c(C)n(Cc3c(F)cccc3C(F)(F)F)c2=O)NCCCC(=O)O)c1 [Compound 11-4]
5100	Cc1c(N2CCN(Cc3cccc(C(F)(F)F)c3)CC2)c(=O)n(C[C@H](NCCCC(=O)O)c2ccccc2)c(=O)n1Cc1c(F)cccc1C(F)(F)F [Compound 11-2]

Same assay, conditions: male, rat, 40 μmol/kg; plasma drug level after oral administration, SD rats; read-out: AUC8 hr

AUC(0-t) [ng·h/mL]	Structure (SMILES)
19600	Cc1cc(F)cc([C@H](Cn2c(=O)c(N3CCN(Cc4ccc(C(F)(F)F)o4)CC3)c(C)n(Cc3c(F)cccc3C(F)(F)F)c2=O)NCCCC(=O)O)c1 [Compound 11-4]
29400	Cc1c(N2CCN(Cc3cccc(C(F)(F)F)c3)CC2)c(=O)n(C[C@H](NCCCC(=O)O)c2ccccc2)c(=O)n1Cc1c(F)cccc1C(F)(F)F [Compound 11-2]

Target: T1, GnRH receptor
Assay: GnRH receptor membrane binding assay ([125I]-D-Trp6-LHRH competition)
Parameters: purchased Perkin Elmer; host or cells: CHO-K1 (stably transfected), membrane preparation
Conditions: not given
Experimental: A membrane Target system (Perkin Elmer), isolated from CHO-K1 cells stably transfected with a GnRH receptor, was employed. […] After incubation at 27° C. for 1 hr, the reaction mix was transferred to a filter (Fitermat A, PerkinElmer) using a vacuum pump and the reaction was terminated by washing many times with 50 mM tris-HCl buffer. The radioactivity on the filter was measured using Microbeta2 trilux (PerkinElmer). The competitors were analyzed for binding inhibition rate (%) on the basis of the measured radioactivity and calculated for IC50 values using a nonlinear least square regression method with Prism (GraphPad, Inc.).

pIC50	Structure (SMILES)
> 7.00	Cc1c(N2CCN(Cc3cccc(C(F)(F)F)c3F)CC2)c(=O)n(C[C@H](N)c2ccccc2)c(=O)n1Cc1c(F)cccc1F [Compound 3-50]
> 7.00	Cc1c(N2CCN(Cc3cccc(C(F)(F)F)c3)CC2)c(=O)n(C[C@H](N)c2ccccc2)c(=O)n1Cc1c(F)cccc1F [Compound 3-47]
> 7.00	Cc1c(N2CCN(Cc3ccc(O)cc3)CC2)c(=O)n(C[C@H](N)c2ccccc2)c(=O)n1Cc1c(F)cccc1F [Compound 3-31]
> 7.00	Cc1c(N2CCCC(C)C2)c(=O)n(C[C@H](N)c2ccccc2)c(=O)n1Cc1c(F)cccc1F (stereo partly drawn) [Compound 1-18]
> 7.00	Cc1c(N2CCN(Cc3cccc(OC(F)(F)F)c3)CC2)c(=O)n(C[C@H](N)c2ccccc2)c(=O)n1Cc1c(F)cccc1F [Compound 3-1]

Same assay, conditions: membrane from CHO-K1 cells stably transfected with GnRH receptor; 0.2 nM [125I]-D-Trp6-LHRH; Table 26 lists compounds with IC50 of less than 100 nM; read-out: IC50 as measured by the GnRH receptor membrane binding assay

pIC50	Structure (SMILES)
> 7.00	Cc1cc(C)c(CN2CCN(c3c(C)n(Cc4c(F)cccc4F)c(=O)n(C[C@H](N)c4ccccc4)c3=O)CC2)c(C)c1 [Compound 3-32]
> 7.00	Cc1c(N2CCN(Cc3ccc(F)c(C(F)(F)F)c3)CC2)c(=O)n(C[C@H](N)c2ccccc2)c(=O)n1Cc1c(F)cccc1F [Compound 3-52]
> 7.00	Cc1c(N2CCN(Cc3cccnc3)CC2)c(=O)n(C[C@H](N)c2ccccc2)c(=O)n1Cc1c(F)cccc1F [Compound 3-7]
> 7.00	Cc1cccc(C)c1CN1CCN(c2c(C)n(Cc3c(F)cccc3F)c(=O)n(C[C@H](N)c3ccccc3)c2=O)CC1 [Compound 4-6]
> 7.00	Cc1c(N2CCN(Cc3ccc(C(F)(F)F)o3)CC2)c(=O)n(C[C@H](NCCCCC(=O)O)c2ccccc2)c(=O)n1Cc1c(F)cccc1C(F)(F)F [Compound 11-8]
> 7.00	Cc1cccc(CN2CCN(c3c(C)n(Cc4c(F)cccc4F)c(=O)n(C[C@H](N)c4ccccc4)c3=O)CC2)c1O [Compound 4-9]
> 7.00	COC(=O)CNC(=O)c1cccc(CN2CCN(c3c(C)n(Cc4c(F)cccc4C(F)(F)F)c(=O)n(C[C@H](N)c4ccccc4)c3=O)CC2)c1 [Compound 10-1]
> 7.00	CSc1ccc(CN2CCN(c3c(C)n(Cc4c(F)cccc4F)c(=O)n(C[C@H](N)c4ccccc4)c3=O)CC2)cc1 [Compound 3-29]
> 7.00	Cc1c(N2CCN(Cc3ccc(OC(F)(F)F)cc3)CC2)c(=O)n(C[C@H](N)c2ccccc2)c(=O)n1Cc1c(F)cccc1F [Compound 3-49]
> 7.00	Cc1ccc(CN2CCN(c3c(C)n(Cc4c(F)cccc4F)c(=O)n(C[C@H](N)c4ccccc4)c3=O)CC2)c(C)c1 [Compound 4-4]
> 7.00	CCOC(=O)CCNC(=O)c1cccc(CN2CCN(c3c(C)n(Cc4c(F)cccc4C(F)(F)F)c(=O)n(C[C@H](N)c4ccccc4)c3=O)CC2)c1 [Compound 10-2]

Second part, the compound before the results:

Structure (SMILES)	pIC50
Cc1c(N2CCN(Cc3ccc(C(F)(F)F)o3)C(CO)C2)c(=O)n(C[C@H](N)c2ccccc2)c(=O)n1Cc1c(F)cccc1C(F)(F)F (stereo partly drawn) [Compound 22, 3-((R)-2-amino-2-phenyl-ethyl)-1-(2-fluoro-6-trifluoromethyl-benzyl)-5-[3-hydroxymethyl-4-(5-trifluoromethyl-furan-2-ylmethyl)-piperazin-1-yl]-6-methyl-1H-pyrimidine-2,4-dione]	> 7.00
Cc1c(N2CCN(Cc3ccc4c(c3)OCO4)CC2)c(=O)n(C[C@H](N)c2ccccc2)c(=O)n1Cc1c(F)cccc1F [Compound 1-13]	> 7.00
N[C@@H](Cn1c(=O)c(N2CCN(Cc3cccc(-c4nnn[nH]4)c3)CC2)cn(Cc2c(F)cccc2C(F)(F)F)c1=O)c1ccccc1 [Compound 18, 3-((R)-2-amino-2-phenyl-ethyl)-1-(2-fluoro-6-trifluoromethyl-benzyl)-5-{4-[3-(1H-tetrazol-5-yl)-benzyl]-piperazin-1-yl}-1H-pyrimidine-2,4-dione]	> 7.00
CCOP(=O)(O)CCCN[C@@H](Cn1c(=O)c(N2CCN(Cc3ccc(C(F)(F)F)o3)CC2)c(C)n(Cc2c(F)cccc2C(F)(F)F)c1=O)c1ccccc1 [Compound 11-10]	> 7.00
Cc1c(N2CCC(Cc3ccccc3)CC2)c(=O)n(C[C@H](N)c2ccccc2)c(=O)n1Cc1c(F)cccc1F [Compound 1-26]	> 7.00
Cc1c(N2CCN(Cc3ccc(C(F)(F)F)o3)CC2)c(=O)n(C[C@H](O)c2ccccc2)c(=O)n1Cc1c(F)cccc1C(F)(F)F [Compound 20, 1-(2-fluoro-6-trifluoromethyl-benzyl)-3-((R)-2-hydroxy-2-phenyl-ethyl)-6-methyl-5-[4-(5-trifluoromethyl-furan-2-ylmethyl)-piperazin-1-yl]-1H-pyrimidine-2,4-dione]	> 7.00
Cc1c(N2CCC(C)CC2)c(=O)n(C[C@H](N)c2ccccc2)c(=O)n1Cc1c(F)cccc1F [Compound 1-16]	> 7.00
Cc1c(N2CCN(Cc3ccc(C(F)(F)F)o3)CC2)c(=O)n(C[C@H](NCCC(O)C(=O)O)c2ccccc2)c(=O)n1Cc1c(F)cccc1C(F)(F)F (stereo partly drawn) [Compound 21, 4-((R)-2-{3-(2-fluoro-6-trifluoromethyl-benzyl)-4-methyl-2,6-dioxo-5-[4-(5-trifluoromethyl-furan-2-ylmethyl)-piperazin-1-yl]-3,6-dihydro-2H-pyrimidin-1-yl}-1-phenyl-ethylamino)-2-hydroxy-butyric acid]	> 7.00
